For 19 compounds, IC50 results are on record in patent publication US20230322846A9, “NEUROACTIVE STEROIDS AND THEIR METHODS OF USE” (SAGE THERAPEUTICS, INC., priority 2018, published 2023).

In general, IC50 refers to the concentration at which inhibition is half-maximal.

Structures are written as SMILES. Bounds are passed on as bounds.

The target of this test is [35S]-TBPS binding, rat brain cortical membranes. The test can be described thus: Steroid inhibition of [35S]-TBPS binding. To be noted: 3 nM [35S]-TBPS, in the presence of 5 mM GABA. Here is the method:
[^35S]-t-Butylbicyclophosphorothionate (TBPS) binding assays using rat brain cortical membranes in the presence of 5 mM GABA has been described (Gee et al, J. Pharmacol. Exp. Ther. 1987, 241, 346-353; Hawkinson et al, Mol. Pharmacol. 1994, 46, 977-985; Lewin, A. H et al., Mol. Pharmacol. 1989, 35, 189-194).
Briefly, cortices are rapidly removed following decapitation of carbon dioxide-anesthetized Sprague-Dawley rats (200-250 g). The cortices are homogenized in 10 volumes of ice-cold 0.32 M sucrose using a glass/teflon homogenizer and centrifuged at 1500×g for 10 min at 4° C. The resultant supernatants are centrifuged at 10,000×g for 20 min at 4° C. to obtain the P2 pellets. The P2 pellets are resuspended in 200 mM NaCl/50 mM Na—K phosphate pH 7.4 buffer and centrifuged at 10,000×g for 10 min at 4° C. This washing procedure is repeated twice and the pellets are resuspended in 10 volumes of buffer. Aliquots ([…]) of the membrane suspensions are incubated with 3 nM [^35S]-TBPS and […] aliquots of test drug dissolved in dimethyl sulfoxide (DMSO) (final 0.5%) in the presence of 5 mM GABA. The incubation is brought to a final volume of 1.0 mL with buffer. Nonspecific binding is determined in the presence of […] and ranged from 15 to 25%. Following a 90 min incubation at room temp, the assays are terminated by filtration through glass fiber filters (Schleicher and Schuell No. 32) using a cell harvester (Brandel) and rinsed three times with ice-cold buffer. Filter bound radioactivity is measured by liquid scintillation spectrometry. Non-linear curve fitting of the overall data for each drug averaged for each concentration is done using Prism (GraphPad). […] The concentration of test compound producing 50% inhibition (IC50) of specific binding and the maximal extent of inhibition (Imax) are determined for the individual experiments with the same model used for the overall data and then the means±SEM.s of the individual experiments are calculated.
Various compounds are or can be screened to determine their potential as modulators of [^35S]-TBPS binding in vitro. These assays are or can be performed in accordance with the above
Regarding `C[C@H]([C@H]1CC[C@H]2[C@@H]3CC[C@@H]4C[C@](C)(O)CC[C@@H]4[C@H]3CC[C@]12C)N1Cc2cc(C#N)ccc2C1=O` [Example 40, 2-((R)-1-((3R,5R,8R,9R,10S,13S,14S,17S)-3-hydroxy-3,13-dimethylhexadecahydro-1H-cyclopenta[a]phenanthren-17-yl)ethyl)-1-oxoisoindoline-5-carbonitrile], the IC50 was under 100 nM.
For the compound `CCOC[C@@]1(O)CC[C@H]2[C@H](CC[C@@H]3[C@@H]2CC[C@]2(C)[C@@H]([C@@H](C)NC(=O)c4ccccc4F)CC[C@@H]32)C1` [Example 42, N—((R)-1-((3R,5R,8R,9R,10S,13S,14S,17S)-3-(ethoxymethyl)-3-hydroxy-13-methylhexadecahydro-1H-cyclopenta[a]phenanthren-17-yl)ethyl)-2-fluorobenzamide], the IC50 was 100 to 1000 nM.
For the compound `CCOC[C@@]1(O)CC[C@H]2[C@H](CC[C@@H]3[C@@H]2CC[C@]2(C)[C@@H]([C@@H](C)N4Cc5cc(C#N)ccc5C4=O)CC[C@@H]32)C1` [Example 43, 2-((R)-1-((3R,5R,8R,9R,10S,13S,14S,17S)-3-(ethoxymethyl)-3-hydroxy-13-methylhexadecahydro-1H-cyclopenta[a]phenanthren-17-yl)ethyl)-1-oxoisoindoline-5-carbonitrile], the IC50 was 100 to 1000 nM.
For the compound `COC[C@@]1(O)CC[C@H]2[C@H](CC[C@@H]3[C@@H]2CC[C@]2(C)[C@@H]([C@@H](C)N4Cc5cc(C#N)ccc5C4=O)CC[C@@H]32)C1` [Example 44, 2-((R)-1-((3R,5R,8R,9R,10S,13S,14S,17S)-3-hydroxy-3-(methoxymethyl)-13-methylhexadecahydro-1H-cyclopenta[a]phenanthren-17-yl)ethyl)-1-oxoisoindoline-5-carbonitrile], the IC50 was under 100 nM.
Next, `C[C@H]([C@H]1CC[C@H]2[C@@H]3CC[C@@H]4C[C@](C)(O)CC[C@@H]4[C@H]3CC[C@]12C)N1CCc2cc(C#N)ccc2C1=O` [Example 45, 2-((R)-1-((3R,5R,8R,9R,10S,13S,14S,17S)-3-hydroxy-3,13-dimethylhexadecahydro-1H-cyclopenta[a]phenanthren-17-yl)ethyl)-1-oxo-1,2,3,4-tetrahydroisoguinoline-6-carbonitrile]: under 100 nM.
For `CCOC[C@@]1(O)CC[C@H]2[C@H](CC[C@@H]3[C@@H]2CC[C@]2(C)[C@@H]([C@@H](C)N4CCc5cc(C#N)ccc5C4=O)CC[C@@H]32)C1` [Example 46, 2-((R)-1-((3R,5R,8R,9R,10S,13S,14S,17S)-3-(ethoxymethyl)-3-hydroxy-13-methylhexadecahydro-1H-cyclopenta[a]phenanthren-17-yl)ethyl)-1-oxo-1,2,3,4-tetrahydroisoquinoline-6-carbonitrile], the IC50 was under 100 nM.
As for `COC[C@@]1(O)CC[C@H]2[C@H](CC[C@@H]3[C@@H]2CC[C@]2(C)[C@@H](CCn4nnc(C)n4)CC[C@@H]32)C1` [Example 47, (3R,5R,8R,9R,10S,13R,14S,17R)-3-(methoxymethyl)-13-methyl-17-(2-(5-methyl-2H-tetrazol-2-yl)ethyl)hexadecahydro-1H-cyclopenta[a]phenanthren-3-ol], the IC50 was under 100 nM.
Turning to `COC[C@@]1(O)CC[C@H]2[C@H](CC[C@@H]3[C@@H]2CC[C@]2(C)[C@@H](CCn4nnnc4C)CC[C@@H]32)C1` [Example 48, (3R,5R,8R,9R,10S,13R,14S,17R)-3-(methoxymethyl)-13-methyl-17-(2-(5-methyl-1H-tetrazol-1-yl)ethyl)hexadecahydro-1H-cyclopenta[a]phenanthren-3-ol], the IC50 was under 100 nM.
As to `COC[C@@]1(O)CC[C@H]2[C@H](CC[C@@H]3[C@@H]2CC[C@]2(C)[C@@H](CCn4nccn4)CC[C@@H]32)C1` [Example 49, (3R,5R,8R,9R,10S,13R,14S,17R)-17-(2-(2H-1,2,3-triazol-2-yl)ethyl)-3-(methoxymethyl)-13-methylhexadecahydro-1H-cyclopenta[a]phenanthren-3-ol], the IC50 is under 100 nM.
Next, `COC[C@@]1(O)CC[C@H]2[C@H](CC[C@@H]3[C@@H]2CC[C@]2(C)[C@@H](CCn4ccnn4)CC[C@@H]32)C1` [Example 50, (3R,5R,8R,9R,10S,13R,14S,17R)-17-(2-(1H-1,2,3-triazol-1-yl)ethyl)-3-(methoxymethyl)-13-methylhexadecahydro-1H-cyclopenta[a]phenanthren-3-ol]: under 100 nM.
Next, `C[C@@H](Cn1cc(C#N)cn1)[C@H]1CC[C@H]2[C@@H]3CC[C@@H]4C[C@](C)(O)CC[C@@H]4[C@H]3CC[C@]12C` [Example 51, 1-((R)-2-((3R,5R,8R,9R,10S,13S,14S,17R)-3-hydroxy-3,13-dimethylhexadecahydro-1H-cyclopenta[a]phenanthren-17-yl)propyl)-1H-pyrazole-4-carbonitrile]: under 100 nM.
On to `C[C@H](Cn1cc(C#N)cn1)[C@H]1CC[C@H]2[C@@H]3CC[C@@H]4C[C@](C)(O)CC[C@@H]4[C@H]3CC[C@]12C` [Example 52, 1-((S)-2-((3R,5R,8R,9R,10S,13S,14S,17R)-3-hydroxy-3,13-dimethylhexadecahydro-1H-cyclopenta[a]phenanthren-17-yl)propyl)-1H-pyrazole-4-carbonitrile], for which the IC50 was under 100 nM.
On to `COC[C@@]1(O)CC[C@H]2[C@@H](CC[C@@H]3[C@@H]2CC[C@]2(C)[C@@H]([C@H](C)Cn4nnc(C)n4)CC[C@@H]32)C1` [Example 54, (3R,5S,8R,9R,10S,13S,14S,17R)-3-(methoxymethyl)-13-methyl-17-((S)-1-(5-methyl-2H-tetrazol-2-yl)propan-2-yl)hexadecahydro-1H-cyclopenta[a]phenanthren-3-ol], for which the IC50 lay in the range of 100 to 1000 nM.
In the case of `COC[C@@]1(O)CC[C@H]2[C@@H](CC[C@@H]3[C@@H]2CC[C@]2(C)[C@@H]([C@@H](C)Cn4nnnc4C)CC[C@@H]32)C1` [Example 55, (3R,5S,8R,9R,10S,13S,14S,17R)-3-(methoxymethyl)-13-methyl-17-((R)-1-(5-methyl-1H-tetrazol-1-yl)propan-2-yl)hexadecahydro-1H-cyclopenta[a]phenanthren-3-ol], the IC50 is under 100 nM.
Consider `COC[C@@]1(O)CC[C@H]2[C@@H](CC[C@@H]3[C@@H]2CC[C@]2(C)[C@@H]([C@H](C)Cn4nnnc4C)CC[C@@H]32)C1` [Example 56, (3R,5S,8R,9R,10S,13S,14S,17R)-3-(methoxymethyl)-13-methyl-17-((S)-1-(5-methyl-1H-tetrazol-1-yl)propan-2-yl)hexadecahydro-1H-cyclopenta[a]phenanthren-3-ol], for which the IC50 lay within 100 to 1000 nM.
Next, `C[C@@H](Cn1nccn1)[C@H]1CC[C@H]2[C@@H]3CC[C@H]4C[C@](C)(O)CC[C@@H]4[C@H]3CC[C@]12C` [Example 57, (3R,5S,8R,9R,10S,13S,14S,17R)-17-((R)-1-(2H-1,2,3-triazol-2-yl)propan-2-yl)-3,13-dimethylhexadecahydro-1H-cyclopenta[a]phenanthren-3-ol]: 100 to 1000 nM.
For `C[C@H](Cn1nccn1)[C@H]1CC[C@H]2[C@@H]3CC[C@H]4C[C@](C)(O)CC[C@@H]4[C@H]3CC[C@]12C` [Example 58, (3R,5S,8R,9R,10S,13S,14S,17R)-17-((S)-1-(2H-1,2,3-triazol-2-yl)propan-2-yl)-3,13-dimethylhexadecahydro-1H-cyclopenta[a]phenanthren-3-ol], the IC50 lay within 1000 to 10000 nM.
On to `C[C@@H](Cn1ccnn1)[C@H]1CC[C@H]2[C@@H]3CC[C@H]4C[C@](C)(O)CC[C@@H]4[C@H]3CC[C@]12C` [Example 59, (3R,5S,8R,9R,10S,13S,14S,17R)-17-((R)-1-(1H-1,2,3-triazol-1-yl)propan-2-yl)-3,13-dimethylhexadecahydro-1H-cyclopenta[a]phenanthren-3-ol], for which the IC50 was in the range of 100 to 1000 nM.
Turning to `C[C@H](Cn1ccnn1)[C@H]1CC[C@H]2[C@@H]3CC[C@H]4C[C@](C)(O)CC[C@@H]4[C@H]3CC[C@]12C` [Example 60, (3R,5S,8R,9R,10S,13S,14S,17R)-17-((S)-1-(1H-1,2,3-triazol-1-yl)propan-2-yl)-3,13-dimethylhexadecahydro-1H-cyclopenta[a]phenanthren-3-ol], the IC50 is 100 to 1000 nM.
